The first test has as its system P. falciparum NF54 (drug-sensitive line). The experiment in a line: Inhibition of proliferation of asynchronous asexual cultures (SYBR Green I based assay, 72h). The following applies: Plasmodium falciparum, NF54, 72 h, SYBR Green I; read-out: Malaria CI50. It is filed as cell-based. The method, then: Compounds were provided at a concentration of 10 mM in DMSO.
P. falciparum parasite are cultured using standard protocol (Trager and Jensen, Science 1976, 193(4254), 673-675). Briefly, parasites are cultured at 4% hematocrit (O+ human blood, Etablissement Français du Sang, France) in RPMI1640 complemented with 0.1% Albumax I, HEPES buffer, hypoxanthine, and gentamycin. They are incubated at 37°C under an atmosphere of 5% CO2 and 5% O2.
Compounds of the invention were assayed for a first screen at 5µM in duplicate against asynchronous asexual cultures of P. falciparum NF54 (drug-sensitive line) containing mostly rings (2% hematocrit. 0.5% starting parasitemia). Plates were incubated for 72h at 37°C under a reduced oxygen atmosphere. Parasite growth was assessed using the SYBR Green I based assay.
IC50 were determined using Graphpad Prism 6 software. Dihydroartemisinin (starting concentration 50nM) and DMSO were used as positive and negative controls.
`COc1ccc2cc1Oc1ccc(cc1)CC1c3c(cc(OC)c4c3Oc3cc5c(cc3O4)CCN(C(=O)Nc3ccncc3)C5C2)CCN1C` (stereo not shown) [Compound 23]: the IC50 was 0.223 ± 0.058 µM.

Take `COc1ccc2cc1Oc1ccc(cc1)CC1c3c(cc(OC)c4c3Oc3cc5c(cc3O4)CCN(C(=O)Nc3cccnc3)C5C2)CCN1C` (stereo not shown) [Compound 27]: the IC50 was 0.383 ± 0.173 µM.

Regarding `CCN(CC)CCCNC(=O)N1CCc2cc3c4cc2C1Cc1ccc(OC)c(c1)Oc1ccc(cc1)CC1c2c(cc(OC)c(c2O4)O3)CCN1C(=O)NCCCN(CC)CC` (stereo not shown) [Compound 87], the IC50 was determined as 0.441 ± 0.067 µM.

`COc1cc2c3c4c1Oc1cc5c(cc1O4)C(Cc1ccc(OCCCN(C)C)c(c1)Oc1ccc(cc1)CC3NCC2)N(C)CC5` (stereo not shown) [Compound 116]: the IC50 was 0.263 ± 0.05 µM.

In the case of `CN(C)CCCOc1ccc2cc1Oc1ccc(cc1)CC1c3c(cc(O)c4c3Oc3cc5c(cc3O4)CCN(C)C5C2)CCN1C` (stereo not shown) [Compound 113], the IC50 amounted to 0.153 ± 0.058 µM.

On to `COc1cc2c3c4c1Oc1cc5c(cc1O4)C(Cc1ccc(OCCCN4CCN(C)CC4)c(c1)Oc1ccc(cc1)CC3N(C)CC2)N(C)CC5` (stereo not shown) [Compound 68], for which the IC50 turned out to be 0.189 µM.

Turning to `COc1cc2c3c4c1Oc1cc5c(cc1O4)C(Cc1ccc(OCCN(C)C)c(c1)Oc1ccc(cc1)CC3N(C)CC2)N(C)CC5` (stereo not shown) [Compound 82], the IC50 was determined as 0.26 ± 0.034 µM.

Regarding `COc1ccc2cc1Oc1ccc(cc1)CC1c3c(cc(OC)c4c3Oc3cc5c(cc3O4)CCN(C)C5C2)CCN1CCOCCOCCO` (stereo not shown) [Compound 42], the IC50 worked out at 0.437 ± 0.083 µM.

With `COc1ccc2cc1Oc1ccc(cc1)CC1c3c(cc(OC)c4c3Oc3cc5c(cc3O4)CCN(CCOCCOCCO)C5C2)CCN1C` (stereo not shown) [Compound 43], the IC50 was 0.438 ± 0.095 µM.

Regarding `CCN(CC)CCOc1ccc2cc1Oc1ccc(cc1)CC1c3c(cc(OC)c4c3Oc3cc5c(cc3O4)CCN(C)C5C2)CCN1C` (stereo not shown) [Compound 78], the IC50 was 0.331 ± 0.029 µM.

As to `COc1ccc2cc1Oc1ccc(cc1)CC1c3c(cc(OC)c4c3Oc3cc5c(cc3O4)CCN(C)C5C2)CCN1CC(O)CO` (stereo not shown) [Compound 48], the IC50 is 0.195 ± 0.055 µM.

As for `COc1ccc2cc1Oc1ccc(cc1)CC1c3c(cc(OC)c4c3Oc3cc5c(cc3O4)CCN(C)C5C2)CCN1CCCN(C)C` (stereo not shown) [Compound 46], the IC50 stood at 0.169 ± 0.01 µM.

Consider `COc1cc2c3c4c1Oc1cc5c(cc1O4)C(Cc1ccc(OC4CCCN(C)CC4)c(c1)Oc1ccc(cc1)CC3N(C)CC2)N(C)CC5` (stereo not shown) [Compound 74], for which the IC50 worked out at 0.297 ± 0.042 µM.

`COc1ccc2cc1Oc1ccc(cc1)CC1c3c(cc(OC)c4c3Oc3cc5c(cc3O4)CCN(C)C5C2)CCN1C(=O)NCc1ccccc1` (stereo not shown) [Compound 28]: the IC50 came to 0.504 ± 0.134 µM.

With `CCN(CC)CCCNC(=O)N1CCc2cc3c4cc2C1Cc1ccc(OC)c(c1)Oc1ccc(cc1)CC1c2c(cc(OC)c(c2O4)O3)CCN1C` (stereo not shown) [Compound 88], the IC50 amounted to 0.297 ± 0.031 µM.

With `COc1ccc2cc1Oc1ccc(cc1)CC1c3c(cc(OC)c4c3Oc3cc5c(cc3O4)CCN(C(=O)NCCN3CCN(C)CC3)C5C2)CCN1C` (stereo not shown) [Compound 60], the IC50 came out at 0.227 ± 0.059 µM.

`COc1cc2c3c4c1Oc1cc5c(cc1O4)C(Cc1ccc(OCC4CO4)c(c1)Oc1ccc(cc1)CC3N(C)CC2)N(C)CC5` (stereo not shown) [Compound 73]: the IC50 is 0.299 ± 0.025 µM.

Still in this test, the particulars now being: Plasmodium falciparum; NF54, 72h, SYBR Green I; read-out: Malaria CI50.
For `CN1CCc2cc3c4cc2C1Cc1ccc(O)c(c1)Oc1ccc(cc1)CC1NCCc2cc(O)c(c(c21)O4)O3` (stereo not shown) [Compound 122], the IC50 was 0.248 ± 0.058 µM.

The test is the same for the next values; noted with them: Plasmodium falciparum; first screen at 5µM in duplicate, 72h, NF54; read-out: % survival @5uM.
Regarding `COc1ccc2cc1Oc1ccc(cc1)CC1c3c(cc(OC)c4c3Oc3cc5c(cc3O4)CCN(C(=O)Nc3ccncc3)C5C2)CCN1C` (stereo not shown) [Compound 23], the activity at 5 µM is 13.4%.

With `COc1ccc2cc1Oc1ccc(cc1)CC1c3c(cc(OC)c4c3Oc3cc5c(cc3O4)CCN(C(=O)Nc3cccnc3)C5C2)CCN1C` (stereo not shown) [Compound 27], the activity at 5 µM amounted to 12.7%.

Regarding `CCN(CC)CCCNC(=O)N1CCc2cc3c4cc2C1Cc1ccc(OC)c(c1)Oc1ccc(cc1)CC1c2c(cc(OC)c(c2O4)O3)CCN1C(=O)NCCCN(CC)CC` (stereo not shown) [Compound 87], the activity at 5 µM is 11.3%.

Regarding `COc1cc2c3c4c1Oc1cc5c(cc1O4)C(Cc1ccc(OCCCN4CCN(C)CC4)c(c1)Oc1ccc(cc1)CC3N(C)CC2)N(C)CC5` (stereo not shown) [Compound 68], the activity at 5 µM was found to be 14.8%.

As for `COc1cc2c3c4c1Oc1cc5c(cc1O4)C(Cc1ccc(OCCN(C)C)c(c1)Oc1ccc(cc1)CC3N(C)CC2)N(C)CC5` (stereo not shown) [Compound 82], the activity at 5 µM stood at 13.4%.

Consider `COc1ccc2cc1Oc1ccc(cc1)CC1c3c(cc(OC)c4c3Oc3cc5c(cc3O4)CCN(C)C5C2)CCN1CCOCCOCCO` (stereo not shown) [Compound 42], for which the activity at 5 µM stood at 12.9%.

Regarding `COc1ccc2cc1Oc1ccc(cc1)CC1c3c(cc(OC)c4c3Oc3cc5c(cc3O4)CCN(CCOCCOCCO)C5C2)CCN1C` (stereo not shown) [Compound 43], the activity at 5 µM stood at 13.3%.

As for `CCN(CC)CCOc1ccc2cc1Oc1ccc(cc1)CC1c3c(cc(OC)c4c3Oc3cc5c(cc3O4)CCN(C)C5C2)CCN1C` (stereo not shown) [Compound 78], the activity at 5 µM came out at 12.6%.

On to `COc1ccc2cc1Oc1ccc(cc1)CC1c3c(cc(OC)c4c3Oc3cc5c(cc3O4)CCN(C)C5C2)CCN1CC(O)CO` (stereo not shown) [Compound 48], for which the activity at 5 µM came out at 11.8%.

On to `COc1ccc2cc1Oc1ccc(cc1)CC1c3c(cc(OC)c4c3Oc3cc5c(cc3O4)CCN(C)C5C2)CCN1CCCN(C)C` (stereo not shown) [Compound 46], for which the activity at 5 µM was determined as 14.2%.

Take `COc1cc2c3c4c1Oc1cc5c(cc1O4)C(Cc1ccc(OC4CCCN(C)CC4)c(c1)Oc1ccc(cc1)CC3N(C)CC2)N(C)CC5` (stereo not shown) [Compound 74]: the activity at 5 µM came out at 14.7%.

In the case of `COc1ccc2cc1Oc1ccc(cc1)CC1c3c(cc(OC)c4c3Oc3cc5c(cc3O4)CCN(C)C5C2)CCN1C(=O)NCc1ccccc1` (stereo not shown) [Compound 28], the activity at 5 µM worked out at 14.4%.

`CCN(CC)CCCNC(=O)N1CCc2cc3c4cc2C1Cc1ccc(OC)c(c1)Oc1ccc(cc1)CC1c2c(cc(OC)c(c2O4)O3)CCN1C` (stereo not shown) [Compound 88]: the activity at 5 µM came to 14.7%.

For `COc1ccc2cc1Oc1ccc(cc1)CC1c3c(cc(OC)c4c3Oc3cc5c(cc3O4)CCN(C(=O)NCCN3CCN(C)CC3)C5C2)CCN1C` (stereo not shown) [Compound 60], the activity at 5 µM is 15.4%.

Regarding `COc1cc2c3c4c1Oc1cc5c(cc1O4)C(Cc1ccc(OCC4CO4)c(c1)Oc1ccc(cc1)CC3N(C)CC2)N(C)CC5` (stereo not shown) [Compound 73], the activity at 5 µM amounted to 15.8%.

Staying with this test, now noted: same conditions as Table 1 (NF54, 72h); read-out: mean IC50 +/- SD.
Take `COc1ccc2cc1Oc1ccc(cc1)C[C@@H]1NCCc3cc(OC)c4c(c31)Oc1cc3c(cc1O4)CCN[C@H]3C2` [Nortrilobine, reference compound]: the IC50 worked out at 1.22 ± 0.13 µM.

The record behind these values is patent EP3907227A1, “TRILOBINE DERIVATIVES AND THEIR USE THEREOF IN THE TREATMENT OF MALARIA” (Institut Pasteur, priority 2020, dated 2021).
